Results from ChEMBL document CHEMBL1201862, “PubChem BioAssay data set” (2004).
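Dose response: 5 concentrations. Exposure: 48 h. Format: 96-well plates. Endpoint: linear interpolation; highest concentration if not reached. Abbreviation: GI50, concentration required for 50% inhibition of growth.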 Activity calls are given as the source filed them. No stated cut-off is given here; in the data, active = GI50 up to about 1.1 µM and inactive = higher.

Experiments:
Assay in all cases: inhibition of tumour cell growth, NCI panel, 48 h
A498 = system: A498
MDA-MB-435 = system: MDA-MB-435
HCT-116 = system: HCT-116
UACC-257 = system: UACC-257
HCT-15 = system: HCT-15
SK-MEL-5 = system: SK-MEL-5
NCI-H522 = system: NCI-H522
CCRF-CEM = system: CCRF-CEM
A549 = system: A549
HOP-62 = system: HOP-62
KM12 = system: KM12
HCC 2998 = system: HCC 2998
TK-10 = system: TK-10
HT-29 = system: HT-29
MDA-N = system: MDA-N
OVCAR-8 = system: OVCAR-8
IGROV-1 = system: IGROV-1
Hs-578T = system: Hs-578T
UO-31 = system: UO-31
DMS-114 = system: DMS-114

SMILES	GI50 (A498)	GI50 (MDA-MB-435)	GI50 (HCT-116)	GI50 (UACC-257)	GI50 (HCT-15) [µM]	GI50 (SK-MEL-5)	GI50 (NCI-H522)	GI50 (CCRF-CEM)	GI50 (A549)	GI50 (HOP-62)	GI50 (KM12)	GI50 (HCC 2998)	GI50 (TK-10)	GI50 (HT-29)	GI50 (MDA-N)	GI50 (OVCAR-8)	GI50 (IGROV-1)	GI50 (Hs-578T)	GI50 (UO-31)	GI50 (DMS-114)
COc1ccc2oc(C(=O)N3CC(CCl)c4ccc(N)cc43)cc2c1 (centres undefined)	0.296 µM (active)	0.332 µM (active)	0.161 µM (active)	0.596 µM (active)	0.238	0.176 µM (active)	0.0189 µM (active)	0.36 µM (active)	0.303 µM (active)	0.995 µM (active)	0.242 µM (active)	0.489 µM (active)	2.9 µM (inactive)	0.357 µM (active)	0.553 µM (active)	0.279 µM (active)	0.213 µM (active)	0.857 µM (active)	0.194 µM (active)	–
O=c1nc(NC2CCCCO2)ccn1CCO (centres undefined)	> 100 µM (inactive)	–	> 100 µM (inactive)	> 100 µM (inactive)	> 100	> 100 µM (inactive)	> 100 µM (inactive)	> 100 µM (inactive)	> 100 µM (inactive)	> 100 µM (inactive)	> 100 µM (inactive)	–	> 100 µM (inactive)	> 100 µM (inactive)	–	> 100 µM (inactive)	> 100 µM (inactive)	–	> 100 µM (inactive)	> 100 µM (inactive)
CC12CCC(CC1=O)C2(C)CCC(N)=O (centres undefined)	> 100 µM (inactive)	> 100 µM (inactive)	> 100 µM (inactive)	> 100 µM (inactive)	> 100	> 100 µM (inactive)	> 100 µM (inactive)	> 100 µM (inactive)	> 100 µM (inactive)	> 100 µM (inactive)	> 100 µM (inactive)	> 100 µM (inactive)	> 100 µM (inactive)	> 100 µM (inactive)	> 100 µM (inactive)	> 100 µM (inactive)	> 100 µM (inactive)	> 100 µM (inactive)	> 100 µM (inactive)	–
CCn1c(C)nn2c(=O)c3ccccc3nc2c1=O	> 100 µM (inactive)	–	> 100 µM (inactive)	> 100 µM (inactive)	> 100	> 100 µM (inactive)	–	> 100 µM (inactive)	> 100 µM (inactive)	> 100 µM (inactive)	> 100 µM (inactive)	> 100 µM (inactive)	> 100 µM (inactive)	> 100 µM (inactive)	–	> 100 µM (inactive)	> 100 µM (inactive)	–	–	> 100 µM (inactive)
Clc1ccc(/C(=C\c2ccccc2)Cn2ccnc2)cc1	15.3 µM (inactive)	11.2 µM (inactive)	14.8 µM (inactive)	19.3 µM (inactive)	17.8	12.8 µM (inactive)	8.15 µM (inactive)	24.5 µM (inactive)	18 µM (inactive)	15.9 µM (inactive)	4.93 µM (inactive)	21.3 µM (inactive)	35.6 µM (inactive)	15.5 µM (inactive)	14.9 µM (inactive)	16.1 µM (inactive)	19.6 µM (inactive)	> 100 µM (inactive)	5.28 µM (inactive)	–
COc1ccc(/C=C(\C(C)=O)C(=O)Nc2ccccc2)cc1	–	–	> 100 µM (inactive)	> 100 µM (inactive)	> 100	> 100 µM (inactive)	> 100 µM (inactive)	> 100 µM (inactive)	> 100 µM (inactive)	> 100 µM (inactive)	> 100 µM (inactive)	> 100 µM (inactive)	> 100 µM (inactive)	> 100 µM (inactive)	–	> 100 µM (inactive)	> 100 µM (inactive)	–	> 100 µM (inactive)	> 100 µM (inactive)
CC1=NN(c2ccccc2)C(=O)C1/N=N/c1ccc(Br)cc1C (centres undefined)	57 µM (inactive)	–	81.3 µM (inactive)	> 100 µM (inactive)	> 100	> 100 µM (inactive)	–	> 100 µM (inactive)	40.5 µM (inactive)	27.9 µM (inactive)	> 100 µM (inactive)	> 100 µM (inactive)	39.4 µM (inactive)	> 100 µM (inactive)	–	95.9 µM (inactive)	67.3 µM (inactive)	–	–	> 100 µM (inactive)
CN1C(=O)C(C(=O)Nc2ccccn2)C2C[C@@]1(C)Oc1ccccc12 (some centres undefined)	11.1 µM (inactive)	> 100 µM (inactive)	> 100 µM (inactive)	> 100 µM (inactive)	> 100	> 100 µM (inactive)	> 100 µM (inactive)	> 100 µM (inactive)	> 100 µM (inactive)	> 100 µM (inactive)	> 100 µM (inactive)	> 100 µM (inactive)	> 100 µM (inactive)	> 100 µM (inactive)	> 100 µM (inactive)	> 100 µM (inactive)	> 100 µM (inactive)	> 100 µM (inactive)	> 100 µM (inactive)	–
O=C(c1ccc(Cl)cc1)N(C(=S)N1CCN(c2ccccc2)CC1)C1CCCCC1	–	–	45.7 µM (inactive)	91.2 µM (inactive)	> 100	> 100 µM (inactive)	> 100 µM (inactive)	> 100 µM (inactive)	> 100 µM (inactive)	> 100 µM (inactive)	> 100 µM (inactive)	–	> 100 µM (inactive)	> 100 µM (inactive)	–	> 100 µM (inactive)	> 100 µM (inactive)	–	> 100 µM (inactive)	70 µM (inactive)
Cn1cnc([N+](=O)[O-])c1[Se]c1nc(N)nc2c1ncn2C1OC(CO)C(O)C1O (centres undefined)	> 100 µM (inactive)	> 100 µM (inactive)	> 100 µM (inactive)	> 100 µM (inactive)	> 100	> 100 µM (inactive)	> 100 µM (inactive)	> 100 µM (inactive)	> 100 µM (inactive)	> 100 µM (inactive)	> 100 µM (inactive)	> 100 µM (inactive)	> 100 µM (inactive)	> 100 µM (inactive)	> 100 µM (inactive)	> 100 µM (inactive)	> 100 µM (inactive)	> 100 µM (inactive)	> 100 µM (inactive)	–
COC(=O)c1ccccc1C1CN=NC12Cc1cc(C)cc(C)c1C2=O (centres undefined)	2.9 µM (inactive)	36.4 µM (inactive)	44.1 µM (inactive)	34 µM (inactive)	17.3	31.3 µM (inactive)	13.3 µM (inactive)	33.4 µM (inactive)	45.5 µM (inactive)	> 100 µM (inactive)	29.9 µM (inactive)	46.9 µM (inactive)	60.4 µM (inactive)	23.4 µM (inactive)	57 µM (inactive)	> 100 µM (inactive)	> 100 µM (inactive)	86.3 µM (inactive)	43 µM (inactive)	–
Cc1ccc([S+](c2ccccc2)c2cc(C)ccc2C)cc1.O=C(OC(C(=O)[O-])C(OC(=O)c1ccccc1)C(=O)O)c1ccccc1 (centres undefined)	39.2 µM (inactive)	5.3 µM (inactive)	3.49 µM (inactive)	1.96 µM (inactive)	> 100	3.85 µM (inactive)	3.55 µM (inactive)	12.8 µM (inactive)	8.87 µM (inactive)	21.5 µM (inactive)	3.91 µM (inactive)	7.46 µM (inactive)	18.2 µM (inactive)	7.69 µM (inactive)	3.89 µM (inactive)	6.7 µM (inactive)	10.7 µM (inactive)	5.12 µM (inactive)	38 µM (inactive)	–
CCN(CC)CC1CCCCN1CC(=O)N1c2ccccc2NC(=O)c2ccccc21 (centres undefined)	> 100 µM (inactive)	> 100 µM (inactive)	> 100 µM (inactive)	> 100 µM (inactive)	> 100	> 100 µM (inactive)	> 100 µM (inactive)	> 100 µM (inactive)	> 100 µM (inactive)	> 100 µM (inactive)	> 100 µM (inactive)	> 100 µM (inactive)	> 100 µM (inactive)	> 100 µM (inactive)	> 100 µM (inactive)	> 100 µM (inactive)	> 100 µM (inactive)	> 100 µM (inactive)	23.9 µM (inactive)	–
C=CCN1C(=O)CNC1=S	> 100 µM (inactive)	> 100 µM (inactive)	> 100 µM (inactive)	> 100 µM (inactive)	> 100	> 100 µM (inactive)	> 100 µM (inactive)	5.35 µM (inactive)	> 100 µM (inactive)	> 100 µM (inactive)	> 100 µM (inactive)	> 100 µM (inactive)	> 100 µM (inactive)	> 100 µM (inactive)	> 100 µM (inactive)	> 100 µM (inactive)	> 100 µM (inactive)	> 100 µM (inactive)	> 100 µM (inactive)	–
Cc1cc2c(c(/C=N/c3ccc(N(C)C)cc3)c1)OC1(C=C2)Oc2ccccc2C(=O)N1C (centres undefined)	19.7 µM (inactive)	13 µM (inactive)	8.22 µM (inactive)	14.7 µM (inactive)	8.34	13.9 µM (inactive)	14.4 µM (inactive)	2.71 µM (inactive)	20.1 µM (inactive)	> 43 µM (inactive)	15.5 µM (inactive)	16.6 µM (inactive)	16.3 µM (inactive)	23.1 µM (inactive)	12.5 µM (inactive)	14.2 µM (inactive)	13.2 µM (inactive)	21.5 µM (inactive)	9.2 µM (inactive)	–
COc1ccc(C/C(=N/O)C(=O)NCCc2cc(Br)c(OCCCN(C)C)c(Br)c2)cc1Br [APLYSAMINE 2]	–	–	14.5 µM (inactive)	16.1 µM (inactive)	–	–	16.4 µM (inactive)	–	20 µM (inactive)	15.8 µM (inactive)	16.6 µM (inactive)	14.1 µM (inactive)	29.8 µM (inactive)	5.92 µM (inactive)	–	21.9 µM (inactive)	–	–	23.1 µM (inactive)	18.5 µM (inactive)
